Measured values reported in patent publication US20070004660A1, “Synergistic Modulation of Flt3 Kinase Using Alkylquinolines and Alkylquinazolines” (priority 2005, published 2007).
Read-outs that look alike come from different tables or passages of the source.

How the values were obtained:
[1] = test system: FLT3; test: FLT3 phosphorylation in MV4-11 tumors from treated mice (immunoblot); assay type: in vivo, human; conditions: single dose 100 mg/kg po, tumors harvested 2 hours later
Experimental: To establish further that FLT3 inhibitors of Formula I′ reached the expected target in tumor tissue, the level of FLT3 phosphorylation in tumor tissue obtained from vehicle- and compound-treated mice was measured. Results for FLT3 inhibitor Compound B (Compound 73 of Formula I′) and FLT3 inhibitor Compound C (Compound 74 of Formula I′) are shown in FIG. 3 and FIG. 4, respectively. For this pharmacodynamic study, a sub-set of 10 mice from the vehicle-treated control group were randomized into two groups of 5 mice each and then treated with another dose of vehicle or compound (100 mg/kg, po). Tumors were harvested 2 hours later and snap frozen for assessment of FLT3 phosphorylation by immunobloting.
Harvested tumors were processed for immunoblot analysis of FLT3 phosphorylation in the following manner: 100 mg of tumor tissue was dounce homogenized in lysis buffer (50 mM Hepes, 150 mM NaCl, 10% Glycerol, 1% Triton-X-100, 10 mM NaF, 1 mM EDTA, 1.5 mM MgCl2, 10 mM NaPyrophosphate) supplemented with phosphatase (Sigma Cat# P2850) and protease inhibitors (Sigma Cat #P8340). Insoluble debris was removed by centrifugation at 1000×g for 5 minutes at 4° C. Cleared lysates ([…] of total potein at 10 mg/ml in lysis buffer) were incubated with 10 μg of agarose conjugated anti-FLT3 antibody, clone C-20 (Santa Cruz cat # sc-479ac), for 2 hours at 4° C. with gentle agitation. […]

[2] = test system: MV4-11 AML cells; test: Cell proliferation assay, single agents and FTI/FLT3 inhibitor combinations, MV4-11; assay type: cell-based, human; conditions: Homo sapiens, MV4-11; proliferation; FLT3 inhibitor alone or, in combination lines, in the combination
Experimental: Dose responses for the individual compounds alone were determined for each cell line using a standard 72-hour cell proliferation assay (see FIGS. 6.1-6.8). The standard chemotherapeutic agent Cytarabine was used as a control cytotoxic agent in all experiments. […] The FLT3 inhibitors, Compounds A, B, C, D, E, F G and H individually have good potency (sub-micromolar) for the inhibition of FLT3 driven proliferation (compared to the first line cytotoxic agent Cytarabine and Tipifarnib) in cells that depend on FLT3 for growth. Each of these chemically distinct compounds alone has potential for the treatment of disorders related to FLT3, such as FLT3 positive AML. […] The FLT3 inhibitors tested had no effect on THP-1 proliferation. […] (See FIGS. 10.1-10.8 and Tables 1-3, hereafter.)
To statistically evaluate the synergy of a FLT3 inhibitor and an FTI in FLT3 dependent cell lines, dosing combinations were evaluated by the method of Chou and Talalay. See Chou T C, Talalay P. (1984) “Quantitative analysis of dose-effect relationships: the combined effects of multiple drugs or enzyme inhibitors.” Adv Enzyme Regul. 22:27-55. […] Using this method, multiple FTI and FLT3 combinations were evaluated. […]
Cell proliferation assay for MV4-11, Baf3-ITD, Baf3-FLT3 and THP-1 cells. […] Total cell growth is quantified as the difference in luminescent counts (relative light units, RLU) of cell number at Day 0 compared to total cell number at Day 3 (72 hours of growth and/or compound treatment). One hundred percent inhibition of growth is defined as an RLU equivalent to the Day 0 reading. […]
Combination Index Analysis. To determine growth inhibition synergy of a FTI and FLT3 inhibitor combination based on the method of Chou and Talalay (Chou and Talalay. See Chou T C, Talalay P. (1984) “Quantitative analysis of dose-effect relationships: the combined effects of multiple drugs or enzyme inhibitors.” Adv Enzyme Regul. 22:27-55. ), fixed ratio combination dosing with isobolar statistical analysis was performed. […]

[3] = test system: MV-4-11 tumor xenografts; test: In vivo combination study, FLT3 inhibitor Compound B and Tipifarnib, MV-4-11 xenografts; conditions: for effect on tumor growth compared to Vehicle-treated group: nine days
Experimental: The effect of combination treatment of the FLT3 Inhibitor FLT3 inhibitors of Formula I′ and Tipifarnib (Zarnestra™) on the growth of MV-4-11 human AML tumor xenografts in nude mice was tested using FLT3 inhibitor Compound B. The in vivo study was designed to extend the in vitro observations to evaluate the potential for a synergistic anti-tumor effect of FLT3 inhibitor Compound B administered orally together with Tipifarnib to nude mice bearing established MV-4-11 tumor xenografts.

[4] = test system: MV4-11 tumor xenografts; conditions: for reduction of final tumor weight compared to vehicle-treated group / tumor regression, decrease versus starting mean tumor volume on Day 1: 11 days; for decrease of mean tumor volume compared to vehicle-treated group: Day 11
Experimental: The oral anti-tumor efficacy of a subset of the compounds of the invention was evaluated in vivo using a nude mouse MV4-11 human tumor xenograft regression model.

Structure (SMILES): CN1CCN(CCCOc2ccc3c(C4CCN(C(=O)Nc5ccc(N6CCOCC6)cc5)CC4)ncnc3c2)CC1 [FLT3 inhibitor Compound B, 4-{7-[3-(4-Methyl-piperazin-1-yl)-propoxy]-quinazolin-4-yl}-piperidine-1-carboxylic acid (4-morpholin-4-yl-phenyl)-amide]
- level of FLT3 phosphorylation in MV4-11 tumors versus vehicle [1]: biologically significant reduction
- IC50 [2]: 31.3 nM
- effect on tumor growth compared to Vehicle-treated group ([3]; 10 mg/kg bid po): marginal significant inhibition of tumor growth
- effect on tumor growth compared to Vehicle-treated group ([3]; 20 mg/kg bid po): tumor growth stasis
- overt toxicity ([3]; 9-day treatment, either agent alone or in combination): No overt toxicity
- reduction of final tumor weight compared to vehicle-treated group ([4]; 10 mg/kg b.i.d. po): 48%
- decrease of mean tumor volume compared to vehicle-treated group ([4]; 10 mg/kg b.i.d. po): 44%
- reduction of final tumor weight compared to vehicle-treated group ([4]; 30 mg/kg b.i.d. po): 85%
- tumor regression, decrease versus starting mean tumor volume on Day 1 ([4]; 30 mg/kg b.i.d. po): 42%
- decrease of mean tumor volume compared to vehicle-treated group ([4]; 30 mg/kg b.i.d. po): 84%
- reduction of final tumor weight compared to vehicle-treated group ([4]; 100 mg/kg b.i.d. po): 99%
- tumor regression, decrease versus starting mean tumor volume on Day 1 ([4]; 100 mg/kg b.i.d. po): 77%
- decrease of mean tumor volume compared to vehicle-treated group ([4]; 100 mg/kg b.i.d. po): 94%
